Data published in patent US7141251B2, “Pharmacologically active strong acid solutions” (Cytorex Biosciences, inc., priority 2001, dated 2006).

Legend:
[1] = Example 27: patient with hypertension; conditions: 180/110 without medication
[2] = in water; cited from earlier work

Structure (SMILES) | blood pressure [1] | Grade of Ionization (α) [2]
CC(C)NCC(O)COc1ccc(CC(N)=O)cc1 (stereo not drawn) [Atenolol] | 150/90 | 
O=C(O)C(=O)O [Formulation H2C2O4, oxalic acid] |  | α = 1
O=C(O)CC(O)(CC(=O)O)C(=O)O [Formulation H8C6O7, citric acid] |  | α < 1
